{
  "source": "patent US20210106582A1",
  "about": "“COMPOUNDS AND PHARMACEUTICAL COMPOSITIONS THEREOF FOR USE IN THE TREATMENT OF FIBROTIC DISEASES” (Galapagos NV, priority 2017, published 2021)",
  "format_in_all_cases": "in vivo",
  "key": {"[1]": {"system": "male C57BL/6 mice fed a Methionine and Choline-deficient (MCD) diet", "experiment": "MCD model (methionine and choline deficient diet, NASH)", "conditions": "individual animals, 30 mg/kg q.d. p.o., MCD diet 8 wk", "description": "The methionine and choline deficient (MCD) diet model is used to produce a severe phenotype of NASH in […] (Santhekadur et al., 2017), and is used to evaluate the compounds of the invention.\nAt induction, 8 weeks-old male C57BL/6 mice (Janvier Labs, France) maintained at 22° C.±2° C. and humidity at 55%±10%, with a 12-hrs dark/light cycle are fed a standard diet (chow (A04C-10, Safe, France) or a Methionine and Choline-deficient (MCD) diet (EFTD.90262, Ssniff, Soest, Germany) for 8 weeks. All animals have access to filtered tap drinking water.\nFour weeks after the induction, the animals are either assigned to a control-group or a test-group.\nTest group animals are dosed with the a test compound, i.e. Compound A (CpdA) or Compound B (CpdB), at 30 mg/kg, q.d., p.o. formulated in methylcellulose 0.5%, 1 equivalent HCl. The control groups receives a similar volume of vehicle (10 mL/kg), i.e. the standard diet for control group 1 (C1) and the MCD diet for control group 2 (C2). Mice are randomly assigned to a treatment group according to their body weight in order to ensure a homogenous reparation.\nAfter sacrifice (week 8), the activity of the test compound on the development of NASH is assessed by plasma ALT and AST levels and in liver by histopathological examination of fibrosis and steatosis (Sirius red, Oil Red O), collagen (OH-Pro) and triglycerides content and expression of fibrotic and inflammatory genes.\nIn addition, the NAS score is determined to further evaluate the compounds with respect to their effect on diet induced NASH. The nonalcoholic fatty liver disease activity scoring (NAS) has been proposed and accepted as a tool to measure changes in NAFLD during therapeutic trials (Brunt et al., 2011; Kleiner et al., 2005).\nThe NAS score (0-8) is defined as the sum of the steatosis score (0-3), lobular inflammation score (0-3), ballooning score (0-2). A NAS score of ≥5 is indicative of a NASH diagnostic."}, "[2]": {"system": "male C57BL/6 mice fed CDAHF diet", "experiment": "CDAHFD model (choline-deficient, L-amino acid-defined, high-fat diet)", "conditions": "individual animals, CDAHFD 10W, 30 mg/kg q.d. p.o."}, "[3]": {"system": "C57BL/6N male mice, bleomycin induced pulmonary fibrosis", "experiment": "Therapeutic bleomycin induced pulmonary fibrosis 21-day mice model", "conditions": "individual animals, BLM, nintedanib 60 mg/kg QD PO D7-D21", "description": "The aim of the study is to test the efficacy of a test compound at three different doses in a 21-day model of bleomycin induced pulmonary fibrosis in mice.\n11 week-old C57BL/6N male mice from Charles River (Italy) are maintained on 12 h light/dark cycle at 22° C. with ad libidum access to tap water and food.\nOn day 0, all mice in groups 2-4 receive a 1.5 U/kg oropharyngeal administration of bleomycin (BLM) to induce pulmonary fibrosis Animals in group 1 are not administered bleomycin, but instead receive a single dose of saline via the oropharyngeal route, and are considered sham control mice.\nAnimals are examined clinically twice daily. List of clinical signs and parameters are indicated in humane endpoints table. Animals are weighed daily starting from DO.\nOn day 21, lung functionality is determined. After deep anesthesia induced by an intraperitoneal injection (10 mL/kg) of a solution of xylazine (5 mg/kg) and ketamine (75 mg/kg), the trachea is exposed through midline incision and a cannula is inserted. Mice are ventilated with a tidal volume of 10 mL/kg at a frequency of 150 breaths/minute. FlexiVent (SCIREQ®) perturbations are performed three times. Deep Inflation and Pressure-Volume loops (PV loops) with stepwise increasing pressure are performed to measure the Inspiratory Capacity and stepwise pressure-driven perturbation (PVs-P). PV loops between 0 and 30 cm H2O are generated to obtain Total Lung Capacity (A). A snapshot perturbation maneuver is imposed, which is a threefold sinusoidal wave of in- and expiration controlled by the ventilator, resulting in resistance (Rrs), compliance (Crs), and elastance (Ers) of the whole respiratory system (airways, lung and chest wall). A value for each group is calculated with average FlexiVent-validated measurements recorded in each individual subject.\nThen, two hours after the last dose of test substance and nintedanib, mice are sacrificed by anesthetic overdose. The lungs are excised and weighed individually. The lungs are then placed into marked bottles containing 10% buffered formalin for further histopathological evaluation.\nBody weight data and lung weight data are processed using MS Excel. Statistical analysis and graphical presentation are performed using GraphPad Prism software (version 5.04).\nFor histopathological evaluation, whole lungs are embedded in paraffin and stained with Mallory's trichrome.\nPulmonary histological changes are assessed using Matsuse's modification of Ashcroft score (Ashcroft et al., 1988; Matsuse et al., 1999). Statistical analysis and graphical presentation is performed using GraphPad Prism software (version 5.04). Mann-Whitney test is employed.\nDifferences between groups are considered statistically significant when p<0.05."}, "[4]": {"system": "female C57BL/6J mice, lung fibrosis induced by radiation", "experiment": "Radiation induced fibrosis mice model", "conditions": "individual animals, irradiated lung, nintedanib 60 mg/kg QD PO D1-D14", "description": "Pneumonitis and lung fibrosis are the major radiation-induced complications following thoracic radiotherapy, which is one of the major treatment of lung and breast cancers, lymphomas and hematopoietic transplant conditioning.\nThe objective of this model is to evaluate the effect of a compound of the invention in lung fibrosis induced by radiation in mice. (Bickelhaupt et al., 2017)\n7 weeks old (18/22 gr) female C57BL/6J mice from Charles River (France) are maintained on 12 h light/dark cycle at 22° C. with ad libidum access to tap water and food.\nThe test compounds are dissolved/suspended in appropriate vehicle prior to using and then kept light-free, under agitation at room temperature.\nThe dose volume administered is 10 mL/kg and the volume is adapted following mean body weight (BW) of the group as follows: 200 μL if mean BW<22.5 g, 250 μL if mean BW≥22.5 g; 300 μL if mean BW>27.5 g.\nOn day 1 of week 1, the animals are exposed at the thorax to a 17 Gray irradiation dose, under isoflurane anesthesia. […]\nBody weight are recorded once a week, and on Day 14, lung function measurement under anesthesia is realized by Flexivent (Devos et al., 2017) for all groups before sacrifice.\nAt sacrifice on Day 14, the lungs are collected and fixed in 4% formaldehyde for 24 h before embedding in paraffin. […] The anti-collagen I antibody is detected and amplified by ImmPress kit (Vector Laboratories, Cat. No: MP-7401). The immunostained sections are then scanned (Nanozoomer 2.0HT, Hamamatsu) before quantification by image analysis (CaloPix software, TRIBVN Healthcare). Data are expressed as percentage collagen I area per area of lung tissue.\nValues for all mice from the same group are averaged. Data are expressed as mean±sem and are compared with a one-way ANOVA followed by Dunnett multiple comparison post hoc test. […]\nManganese superoxide dismutase (MnSOD), located in mitochondria, catalyzes the conversion of superoxide into H2O2, and is a marker of antioxidant response induced by oxidative stress. MnSOD expression is measured immunohistochemically following a protocol adapted from Inghilleri et al. (Inghilleri et al., 2006).\nAt sacrifice on Day 14, the lungs are collected and fixed in 4% formaldehyde for 24 h before embedding in paraffin. […] The anti-MnSOD antibody is detected by an anti-rabbit biotinylated antibody (Vector Laboratories, Cat. No: BA-1100) amplified by avidin-biotin peroxidase (Vector Laboratories, Cat. No: PK-6100). […] The immunostained sections counterstained with Gill's hematoxylin are then scanned (Nanozoomer 2.0HT, Hamamatsu) before quantification by image analysis (CaloPix software, TRIBVN Healthcare). Data are expressed as percentage MnSOD stained area per area of lung tissue."}},
  "note": "“And” between values parts separate entries of the source, which are not always exact repeats. Identical values can stand only once.",
  "data": [
    {"smiles": "Cc1c2n(c(OC[C@@H]3COCCO3)cc1=O)CCc1cc(OCC(F)(F)F)ccc1-2", "note": "[Compound B, 4-[[(2S)-1,4-dioxan-2-yl]methoxy]-1-methyl-9-(2,2,2-trifluoroethoxy)-6,7-dihydrobenzo[a]quinolizin-2-one]", "values": [
      {"measurement": "TIMP1 NRQ gene expression", "setting": "[1]; NRQ scaled versus disease, Fig 8 Panel B", "result": "0.3 (3×) and 0.4 (2×) and 0.5 and 1.7 (2×) and 1.2 and 1.4"},
      {"measurement": "Col1a NRQ gene expression", "setting": "[1]; dosing from week 4, Normalised Relative Quantity scaled versus disease, FIG. 8 Panel A", "result": "0.5 and 2.0 and 1.3 and 1.5 (2×) and 0.4 and 0.3 (2×) and 0.2 (2×)"},
      {"measurement": "TNfα NRQ gene expression", "setting": "[1]; liver, NRQ scaled versus disease, Fig 9 Panel A", "result": "0.4 (2×) and 0.7 and 1.1 (2×) and 0.8 and 0.9 and 0.6 and 0.3 (2×)"},
      {"measurement": "CC12 NRQ gene expression", "setting": "[1]; liver, NRQ scaled versus disease, Fig 9 Panel B", "result": "0.8 and 0.3 and 0.7 (2×) and 1.2 (2×) and 0.9 (2×) and 1.5 and 0.5"},
      {"measurement": "NAS scoring data", "setting": "[1]; total NAS score (0-8), Fig 10", "result": "5.0 and 7.0 (2×) and 6.0 (7×)"}
    ]},
    {"smiles": "CSc1ccc(C(=O)/C=C/c2cc(C)c(OC(C)(C)C(=O)O)c(C)c2)cc1", "note": "[CpdC, elafibranor, reference compound]", "values": [
      {"measurement": "Col1a1 expression profiles (NRQ-scaled versus Disease-Vehicle)", "setting": "[2]; Fig 12 panel A", "result": "0.07 and 0.06 and 0.48 and 0.15 and 0.09 and 0.43 and 0.61 and 0.17"},
      {"measurement": "TNFα expression profiles (NRQ-scaled versus Disease-Vehicle)", "setting": "[2]; Figure 12 panel B", "result": "0.45 and 0.19 and 0.41 and 0.75 and 0.55 and 0.32 (2×) and 0.26 and 0.52"},
      {"measurement": "Fibrosis (Sirius red area %)", "setting": "[2]; liver, Figure 11", "result": "0.45% and 0.19% and 0.41% and 0.75% and 0.55% and 0.32% (2×) and 0.26% and 0.52%"}
    ]},
    {"smiles": "COC(=O)c1ccc2c(c1)NC(=O)/C2=C(\\Nc1ccc(N(C)C(=O)CN2CCN(C)CC2)cc1)c1ccccc1", "note": "[nintedanib]", "values": [
      {"measurement": "Compliance of the Respiratory System", "setting": "[3]; Figure 14 panel B", "result": "0.039 mL/cmH2O (2×) and 0.031 mL/cmH2O and 0.032 mL/cmH2O (2×) and 0.040 mL/cmH2O and 0.027 mL/cmH2O (3×) and 0.034 mL/cmH2O and 0.035 mL/cmH2O and 0.045 mL/cmH2O and 0.015 mL/cmH2O"},
      {"measurement": "Elastance of the Respiratory System", "setting": "[3]; Figure 14 panel C", "result": "25.83 cmH2O/mL and 32.61 cmH2O/mL and 31.04 cmH2O/mL and 25.16 cmH2O/mL and 37.06 cmH2O/mL and 36.60 cmH2O/mL and 31.06 cmH2O/mL and 29.07 cmH2O/mL and 37.31 cmH2O/mL and 28.26 cmH2O/mL and 25.68 cmH2O/mL and 22.39 cmH2O/mL and 68.28 cmH2O/mL"},
      {"measurement": "Ashcroft Score", "setting": "[3]; Matsuse's modification, Figure 13", "result": "2.0 and 2.3 and 2.8 and 3.2 and 3.7 (2×) and 3.5 (4×) and 3.0 (2×) and 3.4 and 2.5 and 2.4"},
      {"measurement": "Inspiratory Capacity", "setting": "[3]; day 21 FlexiVent, Figure 14 panel A", "result": "0.69 mL and 0.57 mL and 0.62 mL and 0.71 mL and 0.48 mL and 0.58 mL and 0.68 mL and 0.53 mL and 0.56 mL and 0.76 mL and 0.78 mL and 0.33 mL"},
      {"measurement": "Type I collagen stained area fraction", "setting": "[4]; Figure 15", "result": "10.5% (2×) and 7.6% and 7.1% and 6.5% and 11.0% and 8.2% and 9.3% and 8.9% and 13.7%"},
      {"measurement": "MnSOD stained area fraction", "setting": "[4]; Figure 16", "result": "1.19% and 0.75% and 0.25% and 0.50% and 0.79% and 0.62% and 0.69% and 0.92% and 0.53% and 1.11%"}
    ]}
  ]
}
